Experimental data: ChEMBL document CHEMBL3045319, “Synthesis, antitumor activity, and structureactivity relationship of some 4H-pyrano[3,2-h]quinoline and 7H-pyrimido[4,5:6,5]pyrano[3,2-h]quinoline derivatives” (Med Chem Res, 2013)
In brackets after ≈: the same amount, converted by molar mass.

Key:
HepG2 [1] = assay: Cytotoxicity against Homo sapiens (human) HepG2 cells assessed as cell viability at 12.5 ug/ml after 48 hr by MTT assay relative to control; type: functional; conditions: HepG2, 48 h, read-out: Activity
HepG2 [2] = assay: Cytotoxicity against Homo sapiens (human) HepG2 cells assessed as cell viability at 3.125 ug/ml after 48 hr by MTT assay relative to control; type: functional; conditions: HepG2, 48 h, read-out: Activity
HepG2 [3] = assay: Cytotoxicity against Homo sapiens (human) HepG2 cells assessed as cell viability at 50 ug/ml after 48 hr by MTT assay relative to control; type: functional; conditions: HepG2, 48 h, read-out: Activity
[4] = Cytotoxicity against Homo sapiens (human) HCT cells after 48 hr by MTT assay; type: functional, cell-based
MCF7 [5] = assay: Cytotoxicity against Homo sapiens (human) MCF7 cells assessed as cell viability at 6.25 ug/ml after 48 hr by MTT assay relative to control; type: functional; conditions: MCF7, 48 h, read-out: Activity
HepG2 [6] = assay: Cytotoxicity against Homo sapiens (human) HepG2 cells after 48 hr by MTT assay; type: functional, cell-based; conditions: Homo sapiens, HepG2, 48 h; read-out: IC50
[7] = Cytotoxicity against Homo sapiens (human) HCT cells assessed as cell viability at 3.125 ug/ml after 48 hr by MTT assay relative to control; type: functional; conditions: read-out: Activity
[8] = Cytotoxicity against Homo sapiens (human) HCT cells assessed as cell viability at 50 ug/ml after 48 hr by MTT assay relative to control; type: functional; conditions: read-out: Activity
MCF7 [9] = assay: Cytotoxicity against Homo sapiens (human) MCF7 cells assessed as cell viability at 25 ug/ml after 48 hr by MTT assay relative to control; type: functional; conditions: MCF7, 48 h, read-out: Activity
HepG2 [10] = assay: Cytotoxicity against Homo sapiens (human) HepG2 cells assessed as cell viability at 25 ug/ml after 48 hr by MTT assay relative to control; type: functional; conditions: HepG2, 48 h, read-out: Activity
MCF7 [11] = assay: Cytotoxicity against Homo sapiens (human) MCF7 cells assessed as cell viability at 12.5 ug/ml after 48 hr by MTT assay relative to control; type: functional; conditions: MCF7, 48 h, read-out: Activity
MCF7 [12] = assay: Cytotoxicity against Homo sapiens (human) MCF7 cells assessed as cell viability at 3.125 ug/ml after 48 hr by MTT assay relative to control; type: functional; conditions: MCF7, 48 h, read-out: Activity
[13] = Cytotoxicity against Homo sapiens (human) HCT cells assessed as cell viability at 25 ug/ml after 48 hr by MTT assay relative to control; type: functional; conditions: read-out: Activity
[14] = Cytotoxicity against Homo sapiens (human) HCT cells assessed as cell viability at 1.56 ug/ml after 48 hr by MTT assay relative to control; type: functional; conditions: read-out: Activity
HepG2 [15] = assay: Cytotoxicity against Homo sapiens (human) HepG2 cells assessed as cell viability at 6.25 ug/ml after 48 hr by MTT assay relative to control; type: functional; conditions: HepG2, 48 h, read-out: Activity
MCF7 [16] = assay: Cytotoxicity against Homo sapiens (human) MCF7 cells assessed as cell viability at 1.56 ug/ml after 48 hr by MTT assay relative to control; type: functional; conditions: MCF7, 48 h, read-out: Activity
MCF7 [17] = assay: Cytotoxicity against Homo sapiens (human) MCF7 cells assessed as cell viability at 50 ug/ml after 48 hr by MTT assay relative to control; type: functional; conditions: MCF7, 48 h, read-out: Activity
[18] = Cytotoxicity against Homo sapiens (human) HCT cells assessed as cell viability at 12.5 ug/ml after 48 hr by MTT assay relative to control; type: functional; conditions: read-out: Activity
[19] = Cytotoxicity against Homo sapiens (human) HCT cells assessed as cell viability at 6.25 ug/ml after 48 hr by MTT assay relative to control; type: functional; conditions: read-out: Activity
MCF7 [20] = assay: Cytotoxicity against Homo sapiens (human) MCF7 cells after 48 hr by MTT assay; type: functional, cell-based; conditions: MCF7, 48 h
HepG2 [21] = assay: Cytotoxicity against Homo sapiens (human) HepG2 cells assessed as cell viability at 1.56 ug/ml after 48 hr by MTT assay relative to control; type: functional; conditions: HepG2, 48 h, read-out: Activity

## N#CC1=C(/N=C/NN)Oc2c(ccc3cccnc23)C1c1ccc(Cl)cc1 (stereo not given)
HepG2 [1]
  viability at 12.5 µg/mL: 36%
HepG2 [2]
  viability at 3.125 µg/mL: 78.4%
HepG2 [3]
  viability at 50 µg/mL: 24.9%
[4]
  IC50: 7.4 µg/mL (≈ 19.7 µM)
MCF7 [5]
  viability at 6.25 µg/mL: 55%
HepG2 [6]
  IC50: 8.7 µg/mL (≈ 23.1 µM)
[7]
  viability at 3.125 µg/mL: 65.2%
[8]
  viability at 50 µg/mL: 24.8%
MCF7 [9]
  viability at 25 µg/mL: 35.2%
HepG2 [10]
  viability at 25 µg/mL: 29.1%
MCF7 [11]
  viability at 12.5 µg/mL: 45%
MCF7 [12]
  viability at 3.125 µg/mL: 67%
[13]
  viability at 25 µg/mL: 29.2%
[14]
  viability at 1.56 µg/mL: 81.4%
HepG2 [15]
  viability at 6.25 µg/mL: 60.9%
MCF7 [16]
  viability at 1.56 µg/mL: 78.8%
MCF7 [17]
  viability at 50 µg/mL: 21.4%
[18]
  viability at 12.5 µg/mL: 36%
[19]
  viability at 6.25 µg/mL: 55.6%
MCF7 [20]
  IC50: 8.4 µg/mL (≈ 22.4 µM)
HepG2 [21]
  viability at 1.56 µg/mL: 88.2%

## CN/C=N/C1=C(C#N)C(c2ccc(Cl)cc2)c2ccc3cccnc3c2O1 (stereo not given)
HepG2 [1]
  viability at 12.5 µg/mL: 30.4%
HepG2 [2]
  viability at 3.125 µg/mL: 45.7%
HepG2 [3]
  viability at 50 µg/mL: 9.28%
[4]
  IC50: 2.3 µg/mL (≈ 6.14 µM)
MCF7 [5]
  viability at 6.25 µg/mL: 50.1%
HepG2 [6]
  IC50: 1.9 µg/mL (≈ 5.07 µM)
[7]
  viability at 3.125 µg/mL: 41.4%
[8]
  viability at 50 µg/mL: 11.1%
MCF7 [9]
  viability at 25 µg/mL: 21.4%
HepG2 [10]
  viability at 25 µg/mL: 17.9%
MCF7 [11]
  viability at 12.5 µg/mL: 29.2%
MCF7 [12]
  viability at 3.125 µg/mL: 65%
[13]
  viability at 25 µg/mL: 13.6%
[14]
  viability at 1.56 µg/mL: 58.2%
HepG2 [15]
  viability at 6.25 µg/mL: 39%
MCF7 [16]
  viability at 1.56 µg/mL: 76.8%
MCF7 [17]
  viability at 50 µg/mL: 16.8%
[18]
  viability at 12.5 µg/mL: 22.2%
[19]
  viability at 6.25 µg/mL: 29.4%
MCF7 [20]
  IC50: 6.3 µg/mL (≈ 16.8 µM)
HepG2 [21]
  viability at 1.56 µg/mL: 52.8%

## N#CC1=C(/N=C/N)Oc2c(ccc3cccnc23)C1c1ccc(Cl)cc1 (stereo not given)
HepG2 [1]
  viability at 12.5 µg/mL: 63.9%
HepG2 [2]
  viability at 3.125 µg/mL: 87.4%
HepG2 [3]
  viability at 50 µg/mL: 35.8%
[4]
  IC50: 6.8 µg/mL (≈ 18.8 µM)
MCF7 [5]
  viability at 6.25 µg/mL: 67.4%
HepG2 [6]
  IC50: 23.6 µg/mL (≈ 65.4 µM)
[7]
  viability at 3.125 µg/mL: 80.2%
[8]
  viability at 50 µg/mL: 18.7%
MCF7 [9]
  viability at 25 µg/mL: 37.5%
HepG2 [10]
  viability at 25 µg/mL: 43.4%
MCF7 [11]
  viability at 12.5 µg/mL: 43.6%
MCF7 [12]
  viability at 3.125 µg/mL: 79.7%
[13]
  viability at 25 µg/mL: 21.8%
[14]
  viability at 1.56 µg/mL: 94.9%
HepG2 [15]
  viability at 6.25 µg/mL: 76.7%
MCF7 [16]
  viability at 1.56 µg/mL: 91.3%
MCF7 [17]
  viability at 50 µg/mL: 23.1%
[18]
  viability at 12.5 µg/mL: 26.3%
[19]
  viability at 6.25 µg/mL: 52.4%
MCF7 [20]
  IC50: 10.5 µg/mL (≈ 29.1 µM)
HepG2 [21]
  viability at 1.56 µg/mL: 96.6%

## Cc1ccc2ccc3c(c2n1)OC(/N=C/N)=C(C#N)C3c1ccc(Cl)cc1 (stereo not given)
HepG2 [1]
  viability at 12.5 µg/mL: 57.7%
HepG2 [2]
  viability at 3.125 µg/mL: 76.7%
HepG2 [3]
  viability at 50 µg/mL: 41.2%
[4]
  IC50: 21.7 µg/mL (≈ 57.9 µM)
MCF7 [5]
  viability at 6.25 µg/mL: 89.3%
HepG2 [6]
  IC50: 32.9 µg/mL (≈ 87.8 µM)
[7]
  viability at 3.125 µg/mL: 82.2%
[8]
  viability at 50 µg/mL: 35.9%
MCF7 [9]
  viability at 25 µg/mL: 74.2%
HepG2 [10]
  viability at 25 µg/mL: 53.8%
MCF7 [11]
  viability at 12.5 µg/mL: 81.5%
MCF7 [12]
  viability at 3.125 µg/mL: 96.5%
[13]
  viability at 25 µg/mL: 44.2%
[14]
  viability at 1.56 µg/mL: 91.6%
HepG2 [15]
  viability at 6.25 µg/mL: 68%
MCF7 [16]
  viability at 1.56 µg/mL: 98.4%
MCF7 [17]
  viability at 50 µg/mL: 63.6%
[18]
  viability at 12.5 µg/mL: 65.2%
[19]
  viability at 6.25 µg/mL: 70.7%
MCF7 [20]
  IC50: > 50 µg/mL
HepG2 [21]
  viability at 1.56 µg/mL: 80.5%

## Cc1ccc2ccc3c(c2n1)OC(/N=C/N)=C(C#N)C3c1ccc(Br)cc1 (stereo not given)
HepG2 [1]
  viability at 12.5 µg/mL: 65.5%
HepG2 [2]
  viability at 3.125 µg/mL: 89.3%
HepG2 [3]
  viability at 50 µg/mL: 52.3%
[4]
  IC50: 6.2 µg/mL (≈ 14.8 µM)
MCF7 [5]
  viability at 6.25 µg/mL: 89.8%
HepG2 [6]
  IC50: > 50 µg/mL
[7]
  viability at 3.125 µg/mL: 65%
[8]
  viability at 50 µg/mL: 24.8%
MCF7 [9]
  viability at 25 µg/mL: 69.6%
HepG2 [10]
  viability at 25 µg/mL: 60.7%
MCF7 [11]
  viability at 12.5 µg/mL: 81.2%
MCF7 [12]
  viability at 3.125 µg/mL: 97.3%
[13]
  viability at 25 µg/mL: 34.1%
[14]
  viability at 1.56 µg/mL: 86.9%
HepG2 [15]
  viability at 6.25 µg/mL: 81.2%
MCF7 [16]
  viability at 1.56 µg/mL: 100%
MCF7 [17]
  viability at 50 µg/mL: 56.2%
[18]
  viability at 12.5 µg/mL: 42.9%
[19]
  viability at 6.25 µg/mL: 49.8%
MCF7 [20]
  IC50: > 50 µg/mL
HepG2 [21]
  viability at 1.56 µg/mL: 98.8%
